# Measured values from patent publication US20250051347A1, “BIFUNCTIONAL CHIMERIC HETEROCYCLIC COMPOUND AND USE THEREOF AS ANDROGEN RECEPTOR DEGRADER” (Hinova Pharmaceuticals, Inc., priority 2021, published 2025).
# Target: T1, androgen receptor (AR) splicing variant AR-v7 (Homo sapiens, UniProt P10275)
# T1 construct: The degradation activity of compounds on AR-v7 in 22RV1 cells; host or cells: 22RV1 cells
# T1 sequence (P10275 1-644 isoform P10275-3): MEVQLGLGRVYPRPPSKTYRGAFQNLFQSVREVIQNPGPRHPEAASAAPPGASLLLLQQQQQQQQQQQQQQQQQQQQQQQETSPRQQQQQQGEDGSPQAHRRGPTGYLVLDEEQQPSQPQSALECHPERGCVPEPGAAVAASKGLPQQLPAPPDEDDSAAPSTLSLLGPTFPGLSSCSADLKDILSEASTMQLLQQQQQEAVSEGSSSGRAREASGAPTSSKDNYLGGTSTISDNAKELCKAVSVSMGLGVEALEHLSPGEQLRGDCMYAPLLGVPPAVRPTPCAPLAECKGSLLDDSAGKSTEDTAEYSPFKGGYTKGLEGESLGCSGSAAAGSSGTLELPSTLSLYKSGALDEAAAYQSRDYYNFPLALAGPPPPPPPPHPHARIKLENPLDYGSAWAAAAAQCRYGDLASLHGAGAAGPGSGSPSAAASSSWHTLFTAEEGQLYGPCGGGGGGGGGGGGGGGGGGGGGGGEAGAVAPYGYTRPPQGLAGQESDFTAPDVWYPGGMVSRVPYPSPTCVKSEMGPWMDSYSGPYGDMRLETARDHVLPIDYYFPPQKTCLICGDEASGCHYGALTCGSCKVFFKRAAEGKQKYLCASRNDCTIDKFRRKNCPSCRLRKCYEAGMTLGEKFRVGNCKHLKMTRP
# Assay: Degradation activity on androgen receptor splicing variant AR-v7 in 22RV1 cells (ELISA)
# Format: cell-based
# Conditions: AR-v7 degradation in 22RV1 cells, 48 h, class symbols
row,SMILES,DC50
1,"CC(C)(c1ccc(Oc2cc(-n3nccn3)ccn2)cc1)c1ccc(O[C@H]2C[C@H](Nc3ccc4c(c3)C(=O)N(C3CCC(=O)NC3=O)C4=O)C2)cc1 (stereo partly shown) [Example 165, 5-(((1r,3r)-3-(4-(2-((4-(2H-1,2,3-triazol-2-yl)pyridin-2-yl)oxy)phenyl)propan-2-ylphenoxy)cyclobutyl)amino)-2-(2,6-dioxopyridin-3-yl)isoindol-1,3-dione]",11 to 100 nM
2,"Cc1nc(-c2cc(Oc3ccc(C(C)(C)c4ccc(O[C@H]5C[C@H](Nc6ccc7c(c6)C(=O)N(C6CCC(=O)NC6=O)C7=O)C5)cc4)cc3)ccn2)no1 (stereo partly shown) [Example 167, 2-(2,6-dioxopyridin-3-yl)-5-(((1r,3r)-3-(4-(2-((4-(2-(5-methyl-1,2,4-oxadiazol-3-yl)pyridin-4-yl)oxy)phenyl)propan-2-yl)phenoxy)cyclobutyl)amino) isoindolin-1,3-dione]",11 to 100 nM
3,"Cc1nc(-c2cc(Oc3ccc(C(C)(C)c4ccc(O[C@H]5C[C@@H](Nc6ccc7c(c6)C(=O)N(C6CCC(=O)NC6=O)C7=O)C5)cc4)cc3)ccn2)no1 (stereo partly shown) [Example 174, 2-(2,6-dioxopyridin-3-yl)-5-(((1s,3s)-3-(4-(2-(4-((2-(5-methyl-1,2,4-oxadiazol-3-yl)pyridin-4-yl)oxy)phenyl)propan-2-yl)phenoxy)cyclobutyl)amino) isoindolin-1,3-dione]",11 to 100 nM
4,"Cc1nc(-c2ncc(Oc3ccc(C(C)(C)c4ccc(N5CCC56CN(c5ccc7c(c5)C(=O)N(C5CCC(=O)NC5=O)C7=O)C6)cc4)cc3)cn2)no1 (stereo not shown) [Example 179, 2-(2,6-dioxopiperidin-3-yl)-5-(1-(4-(2-(4-((2-(5-methyl-1,2,4-oxadiazol-3-yl)pyrimidin-5-yl)oxy)phenyl)propan-2-yl)phenyl)-1,6-diazaspiro[3.3]heptan-6-yl)isoindolin-1,3-dione]",101 to 1000 nM
5,"CN(C)C(=O)c1noc(COc2ccc(C(C)(C)c3ccc(OCCCNc4ccc5c(c4)C(=O)N(C4CCC(=O)NC4=O)C5=O)cc3)cc2)n1 (stereo not shown) [Example 180, 5-((4-(2-(4-(3-((2-(2,6-dioxopiperidin-3-yl)-1,3-dioxoisoindolin-5-yl)amino)propoxy)phenyl)propan-2-yl)phenoxy)methyl)-N,N-dimethyl-1,2,4-oxadiazol-3-carbonylamine]",1000 to 5000 nM
6,COC(=O)c1nccc(COc2ccc(C(C)(C)c3ccc(OCCCNc4ccc5c(c4)C(=O)N(C4CCC(=O)NC4=O)C5=O)cc3)cc2)n1 (stereo not shown) [Example 184],1000 to 5000 nM
7,CN1CCN(c2ncc3c(n2)CN(c2ccc(C(C)(C)c4ccc(O[C@H]5C[C@@H](Nc6ccc7c(c6)C(=O)N(C6CCC(=O)NC6=O)C7=O)C5)cc4)cc2)CC3)CC1 (stereo partly shown) [Example 191],11 to 100 nM
8,"CN1CCN(c2ncc3c(n2)CN(c2ccc(C(C)(C)c4ccc(O[C@H]5C[C@H](Nc6ccc7c(c6)C(=O)N(C6CCC(=O)NC6=O)C7=O)C5)cc4)cc2)CC3)CC1 (stereo partly shown) [Example 192, 2-(2,6-dioxopiperidin-3-yl)-5-((1r,3r)-3-(4-(2-(2-(4-methylpiperazin-1-yl)-5,8-dihydropyrido[3,4-d]pyrimidin-7(6H)-phenyl)propan-2-ylphenoxy)cyclobutyl)amino)isoindolin-1,3-dione]",11 to 100 nM
9,Cc1nccc(Oc2ccc(C(C)(C)c3ccc(O[C@H]4C[C@@H](Nc5ccc6c(c5)C(=O)N(C5CCC(=O)NC5=O)C6=O)C4)cc3)cc2)n1 (stereo partly shown) [Example 198],11 to 100 nM
10,CC(C)(c1ccc(OCc2nc(N3CC4(COC4)C3)ncc2F)cc1)c1ccc(O[C@H]2C[C@@H](Nc3ccc4c(c3)C(=O)N(C3CCC(=O)NC3=O)C4=O)C2)cc1 (stereo partly shown) [Example 199],11 to 100 nM
11,"CC(C)(c1ccc(OCc2nc(N3CC4(COC4)C3)ncc2Cl)cc1)c1ccc(O[C@H]2C[C@@H](Nc3ccc4c(c3)C(=O)N(C3CCC(=O)NC3=O)C4=O)C2)cc1 (stereo partly shown) [Example 201, 5-((1s,3s)-3-(4-(2-(4-((5-chloro-2-(2-oxa-6-azaspiro[3.3]heptan-6-yl)pyrimidin-4-methoxy)phenyl)propan-2-yl)phenoxy)cyclobutyl)amino)-2-(2,6-dioxopiperidin-3-yl)isoindolin-1,3-dione]",11 to 100 nM
12,"CC(C)(c1ccc(OCc2nc(N3CC4(COC4)C3)ncc2Cl)cc1)c1ccc(O[C@H]2C[C@H](Nc3ccc4c(c3)C(=O)N(C3CCC(=O)NC3=O)C4=O)C2)cc1 (stereo partly shown) [Example 202, 5-((1r,3r)-3-(4-(2-(4-((5-chloro-2-(2-oxa-6-azaspiro[3.3]heptan-6-yl)pyrimidin-4-methoxy)phenyl)propan-2-yl)phenoxy)cyclobutyl)amino)-2-(2,6-dioxopiperidin-3-yl)isoindolin-1,3-dione]",11 to 100 nM
13,Cc1cnc(N2CC3(COC3)C2)nc1COc1ccc(C(C)(C)c2ccc(O[C@H]3C[C@@H](Nc4ccc5c(c4)C(=O)N(C4CCC(=O)NC4=O)C5=O)C3)cc2)cc1 (stereo partly shown) [Example 203],11 to 100 nM
14,Cn1cc(-c2ccc(Oc3ccc(C(C)(C)c4ccc(O[C@H]5C[C@H](Nc6ccc7c(c6)C(=O)N(C6CCC(=O)NC6=O)C7=O)C5)cc4)cc3)cn2)cn1 (stereo partly shown) [Example 205],11 to 100 nM
15,CC(C)(c1ccc(Oc2ccc(-n3cccn3)nc2)cc1)c1ccc(O[C@H]2C[C@H](Nc3ccc4c(c3)C(=O)N(C3CCC(=O)NC3=O)C4=O)C2)cc1 (stereo partly shown) [Example 208],11 to 100 nM
16,Cc1nc(-c2ncc(Oc3ccc(C(C)(C)c4ccc(O[C@H]5C[C@H](Nc6ccc7c(c6)C(=O)N(C6CCC(=O)NC6=O)C7=O)C5)cc4)cc3)cc2C(F)(F)F)no1 (stereo partly shown) [Example 211],11 to 100 nM
17,Cc1nc(-c2ccc(Oc3ccc(C(C)(C)c4ccc(O[C@H]5C[C@@H](Nc6ccc7c(c6)C(=O)N(C6CCC(=O)NC6=O)C7=O)C5)cc4)cc3)nc2)no1 (stereo partly shown) [Example 213],11 to 100 nM
18,CC(C)(c1ccc(Oc2ccc(N3CC4(COC4)C3)nc2)cc1)c1ccc(O[C@H]2C[C@H](Nc3ccc4c(c3)C(=O)N(C3CCC(=O)NC3=O)C4=O)C2)cc1 (stereo partly shown) [Example 214],11 to 100 nM
19,CC(C)(c1ccc(Oc2cnc(N)nn2)cc1)c1ccc(O[C@H]2C[C@H](Nc3ccc4c(c3)C(=O)N(C3CCC(=O)NC3=O)C4=O)C2)cc1 (stereo partly shown) [Example 215],11 to 100 nM
20,Cc1nnc(-c2ccc(Oc3ccc(C(C)(C)c4ccc(O[C@H]5C[C@H](Nc6ccc7c(c6)C(=O)N(C6CCC(=O)NC6=O)C7=O)C5)cc4)cc3)nc2)o1 (stereo partly shown) [Example 216],11 to 100 nM
21,"Cc1nc(COc2ccc(C(C)(C)c3ccc(OCCCNc4cccc5c4C(=O)N(C4CCC(=O)NC4=O)C5=O)cc3)cc2)cs1 (stereo not shown) [Example 224, 2-(2,6-dioxopiperidin-3-yl)-4-((3-(4-(2-(4-((2-methylthiazol-4-yl)methoxy)phenyl)propan-2-yl)phenoxy)propyl)amino)isoindolin-1,3-dione]",101 to 1000 nM
22,CN1CCC(Oc2nccc(COc3ccc(C(C)(C)c4ccc(O[C@H]5C[C@@H](Nc6ccc7c(c6)C(=O)N(C6CCC(=O)NC6=O)C7=O)C5)cc4)cc3)n2)CC1 (stereo partly shown) [Example 234],11 to 100 nM
23,CC(C)(c1ccc(OCc2ccnc(OC3CCN(C(=O)OCc4ccccc4)CC3)n2)cc1)c1ccc(O[C@H]2C[C@@H](Nc3ccc4c(c3)C(=O)N(C3CCC(=O)NC3=O)C4=O)C2)cc1 (stereo partly shown) [Example 235],101 to 1000 nM
24,CC(C)(c1ccc(OCc2ccnc(OC3CCNCC3)n2)cc1)c1ccc(O[C@H]2C[C@@H](Nc3ccc4c(c3)C(=O)N(C3CCC(=O)NC3=O)C4=O)C2)cc1 (stereo partly shown) [Example 236],11 to 100 nM
25,CN(C)[C@H]1CCN(c2nccc(COc3ccc(C(C)(C)c4ccc(O[C@H]5C[C@@H](Nc6ccc7c(c6)C(=O)N(C6CCC(=O)NC6=O)C7=O)C5)cc4)cc3)n2)C1 (stereo partly shown) [Example 238],11 to 100 nM
26,"CC(C)(c1ccc(OCc2ccnc(N3CCN(CCO)CC3)n2)cc1)c1ccc(O[C@H]2C[C@@H](Nc3ccc4c(c3)C(=O)N(C3CCC(=O)NC3=O)C4=O)C2)cc1 (stereo partly shown) [Example 241, 2-(2,6-dioxopiperidin-3-yl)-5-(((1s,3s)-3-(4-(2-(4-((2-(4-(2-hydroxylethyl)piperazin-1-yl)pyrimidin-4-yl)methoxy)phenyl)propan-2-yl)phenoxy)cyclobutyl)amino)isoindolin-1,3-dione]",11 to 100 nM
27,CN1CC[C@@H](Oc2nccc(COc3ccc(C(C)(C)c4ccc(O[C@H]5C[C@@H](Nc6ccc7c(c6)C(=O)N(C6CCC(=O)NC6=O)C7=O)C5)cc4)cc3)n2)C1 (stereo partly shown) [Example 243],< 10 nM
28,"CC(C)(c1ccc(OCc2ccnc(NC#N)n2)cc1)c1ccc(O[C@H]2C[C@H](Nc3ccc4c(c3)C(=O)N(C3CCC(=O)NC3=O)C4=O)C2)cc1 (stereo partly shown) [Example 245, N-(4-((4-(2-(4-((1s,3s)-3-((2-(2,6-dioxopiperidin-3-yl)-1,3-dioxoisoindolin-5-yl)amino)cyclobutyloxy)phenyl)propan-2-yl)phenoxy)methyl)pyrimidin-2-yl)cyanamide]",101 to 1000 nM
29,CC(C)(c1ccc(Oc2nc(N3CC4(COC4)C3)ncc2F)cc1)c1ccc(O[C@H]2C[C@H](Nc3ccc4c(c3)C(=O)N(C3CCC(=O)NC3=O)C4=O)C2)cc1 (stereo partly shown) [Example 247],11 to 100 nM

# Same assay, conditions: AR-v7 degradation in 22RV1 cells, 48 h, numeric values
row,SMILES,DC50
1,CC(C)(c1ccc(OCCCCCCCCOCCCCNc2ccc3c(c2)C(=O)N(C2CCC(=O)NC2=O)C3=O)cc1)c1ccc(OCc2ccnc(Nc3ncco3)n2)cc1 (stereo not shown) [Example 226],> 10000 nM
2,C=CC(=O)Nc1nccc(COc2ccc(C(C)(C)c3ccc(OCCCCCCCCOCCN4CCN(c5ccc6c(c5)C(=O)N(C5CCC(=O)NC5=O)C6=O)CC4)cc3)cc2)n1 (stereo not shown) [Example 227],> 10000 nM
